Data published in patent US10899764B2, “Imidazo isoindole derivative, preparation method therefor and medical use thereof” (Jiangsu Hengrui Medicine Co., Ltd., priority 2015, dated 2021).
Where a name gives a salt, the structure may show the parent alone. Read-outs that look alike come from different tables or passages of the source.

How the values were obtained:
human TDO = human TDO (Homo sapiens (Human), UniProt P48775); assay: Inhibition activity on human TDO (tryptophan 2,3-dioxygenase) (enzyme assay, absorbance at 480 nm); assay type: biochemical; conditions: read-out: IC50 for inhibiting the activity of human TDO
Protocol: Assay for Determining the Inhibition activity of the Compounds of the Present Invention on Human TDO (tryptophan 2,3-dioxygenase)
Human TDO activity was tested in vitro by the following method.
This method is used to determine the inhibition effect of the compounds of the present invention on the activity of human TDO.
Plasmids constructed with the human TDO gene were transferred to competent Escherichia coli Rosseta. The TDO gene was scaled-up by culturing in liquid LB (Luria-Bertani) medium [which was prepared per liter according to “Molecular Cloning A Laboratory Manual” (J. Sambrook, D. W. Russell)]). The bacteria were collected and lysed by ultrasonic waves. The purified TDO was obtained by eluting from a column.
For testing, 24 μL of enzyme (TDO) was diluted 100 times with 50 mM KPB to 2400 μL. The concentration of the enzyme solution was 2.6 ng/μL. A 96 well reaction plate (AXYGEN, PCR-96-FLT-C) (hereinafter referred to as the “reaction plate”) was added with the enzyme solution at 24 μL/well. The blank well was added with 24 μL of KPB [Preparation of KPB buffer (50 mM): 6.805 g of KH2PO4 was weighed using an analytical balance, and placed into a 1000 mL beaker, deionized water was added with a measuring cylinder to 900 mL, the pH was adjusted to 6.5 by 1M KOH, then the mixture was introduced into a 1 L measuring cylinder, and water was added to 1 L. It was stored at 4° C.]. Then, 1 μL of a compound or DMSO was added into the corresponding wells in the reaction plate. Preparation of solution A: 200 μL of 500 mM L-sodium ascorbate was added with 1050 μL of KPB, then the mixture was mixed uniformly for 3 seconds at the maximum speed in a turbine mixer. Solution B: 100 μL of 10 mM tryptophan was added with 100 μL of 100,000 unit/ml catalase, 5 μL of 10 mM methylene blue, and 1050 μL of KPB successively, then the mixture was mixed uniformly for 3 seconds at the maximum speed in a turbine mixer. Then, 1200 μL of solution A and 1200 μL of solution B were taken and mixed uniformly for 3 seconds at the maximum speed in a turbine mixer. The mixture was added to the reaction plate at 24 μL/well. The reaction plate was placed in a plate centrifuge and centrifuged for 15 seconds at the maximum speed, so that the reaction liquids converged to the bottom. The reaction mixture was mixed uniformly for 30 seconds on a shaker, and incubated for 1 hour at 37° C. in a constant temperature incubator. In the reaction plate, 30% (W/V) trichloroacetic acid was added at 10 μL/well, then the mixture was incubated for 15 minutes at 65° C. in a incubator. The reaction plate was centrifuged in a centrifuge for 5 minutes at 4700 RPM at room temperature. […] Then, 2% (W/V) 4-(dimethylamino)benzaldehyde/glacial acetic acid solution was added at 40 μL/well, then the mixture was mixed uniformly for 1 minute on a shaker at the maximum speed. After incubation for 2 minutes at room temperature, the absorbance at 480 nm was read on a Synergy HT Reader.
The inhibition activity of the compounds of the present invention on human TDO was tested by the assay described above.

IDO in HeLa cells = IDO in HeLa cells (Homo sapiens (Human), UniProt P14902); assay: Inhibition activity on IDO in HeLa cells (INF-γ induced); assay type: cell-based; conditions: HeLa cells, INF-γ and tryptophan, 48 hours; read-out: IC50 for inhibiting the activity of IDO in HeLa cells
Protocol: Assay for Determining the Inhibition Activity of the Present Compounds on IDO in HeLa Cells
IDO activity in HeLa cells was tested in vitro by the following method.
This method is used to determine the inhibition effect of the compounds of the present invention on the activity of IDO in HeLa cells. (Note: indoleamine 2,3-dioxygenase (IDO) is expressed in the HeLa cell line and induced by interferon gamma (INF-γ)).
The supernatant was removed, serum-free DMEM high glucose medium was added at 90 μL/well, then the compounds contained in the culture medium with INF-γ and tryptophan were added at 10 μL/well (the final concentrations: 10000, 1000, 100, 10, 1, 0.1 nM). […] Then, 80 μL of the supernate was transferred from the 96-well cell culture plate to a 96 well round-bottomed plate, then 30% (W/V) trichloroacetic acid was added at 16 μL/well, then the mixture was incubated for 25 minutes at 65° C. in an incubator. The reaction plate was centrifuged in a centrifuge for 5 minutes at 4700 RPM. Then, 50 μL of the supernatant was transferred from the reaction plate to a 96-well flat-bottomed transparent plate by a multi-channel pipette. Then, 2% (W/V) 4-(dimethylamino)benzaldehyde/glacial acetic acid solution was added at 50 μL/well, then the mixture was mixed uniformly for 1 minute on a shaker. After incubation for 2 minutes at room temperature, the absorbance at 480 nm was read on a Synergy HT Reader.
The inhibition activity of the compounds of the present invention on IDO in HeLa cells was tested by the assay described above.

Chain of human TDO (P48775 whole entry): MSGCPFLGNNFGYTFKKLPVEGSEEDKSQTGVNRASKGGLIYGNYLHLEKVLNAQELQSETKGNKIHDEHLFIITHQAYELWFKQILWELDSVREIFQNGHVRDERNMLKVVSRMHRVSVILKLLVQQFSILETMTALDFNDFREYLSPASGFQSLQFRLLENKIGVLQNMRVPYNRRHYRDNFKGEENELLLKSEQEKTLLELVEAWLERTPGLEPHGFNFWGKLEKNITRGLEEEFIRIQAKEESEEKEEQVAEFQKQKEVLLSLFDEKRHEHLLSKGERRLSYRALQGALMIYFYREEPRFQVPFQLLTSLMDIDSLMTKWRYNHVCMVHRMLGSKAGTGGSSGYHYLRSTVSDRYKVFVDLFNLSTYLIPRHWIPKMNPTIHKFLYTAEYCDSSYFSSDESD
Chain of IDO in HeLa cells (P14902 whole entry): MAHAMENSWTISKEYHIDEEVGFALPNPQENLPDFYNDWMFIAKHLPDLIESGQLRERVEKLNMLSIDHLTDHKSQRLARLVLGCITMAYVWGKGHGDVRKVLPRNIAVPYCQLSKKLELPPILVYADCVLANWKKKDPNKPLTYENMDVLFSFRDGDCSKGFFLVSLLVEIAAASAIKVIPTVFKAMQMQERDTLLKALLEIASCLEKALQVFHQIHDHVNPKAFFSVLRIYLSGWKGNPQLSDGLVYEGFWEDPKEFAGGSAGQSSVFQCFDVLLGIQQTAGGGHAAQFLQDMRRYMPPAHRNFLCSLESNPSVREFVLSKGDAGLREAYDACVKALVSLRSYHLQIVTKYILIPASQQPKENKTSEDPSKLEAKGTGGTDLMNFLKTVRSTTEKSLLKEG

| IC50 (human TDO; purified recombinant human TDO, 1 hour at 37° C.) [nM] | Structure (SMILES) | IC50 (human TDO) [nM] | IC50 (IDO in HeLa cells) [nM] |
| --- | --- | --- | --- |
|  | Fc1cccc(N2CCC(C3c4c(F)cccc4-c4cncn43)CC2)c1 (stereo not shown) [Example 3, 6-fluoro-5-(1-(3-fluorophenyl)piperidin-4-yl)-5H-imidazo[5,1-a]isoindole trifluoroacetate] | 371 | 167 |
| 42 | OCCn1cc(-c2ccc(N3CCC([C@H]4c5c(F)cccc5-c5cncn54)CC3)cc2)cn1 [Example 41, (S)-2-(4-(4-(4-(6-fluoro-5H-imidazo[5,1-a]isoindol-5-yl)piperidin-1-yl)phenyl)-1H-pyrazol-1-yl)ethanol] |  | 47.7 |
